Experiment [1] concerns the target T1, Glucocorticoid receptor of the thymus of a rat (Rattus norvegicus, UniProt P06536).
T1 construct: The thymuses were removed and homogenized at 0° C; from tissue; host or cells: thymus of adrenalectomized male Sprague-Dawley rats, 105,000 g supernatant (cytosol)
T1 sequence (P06536 1-795): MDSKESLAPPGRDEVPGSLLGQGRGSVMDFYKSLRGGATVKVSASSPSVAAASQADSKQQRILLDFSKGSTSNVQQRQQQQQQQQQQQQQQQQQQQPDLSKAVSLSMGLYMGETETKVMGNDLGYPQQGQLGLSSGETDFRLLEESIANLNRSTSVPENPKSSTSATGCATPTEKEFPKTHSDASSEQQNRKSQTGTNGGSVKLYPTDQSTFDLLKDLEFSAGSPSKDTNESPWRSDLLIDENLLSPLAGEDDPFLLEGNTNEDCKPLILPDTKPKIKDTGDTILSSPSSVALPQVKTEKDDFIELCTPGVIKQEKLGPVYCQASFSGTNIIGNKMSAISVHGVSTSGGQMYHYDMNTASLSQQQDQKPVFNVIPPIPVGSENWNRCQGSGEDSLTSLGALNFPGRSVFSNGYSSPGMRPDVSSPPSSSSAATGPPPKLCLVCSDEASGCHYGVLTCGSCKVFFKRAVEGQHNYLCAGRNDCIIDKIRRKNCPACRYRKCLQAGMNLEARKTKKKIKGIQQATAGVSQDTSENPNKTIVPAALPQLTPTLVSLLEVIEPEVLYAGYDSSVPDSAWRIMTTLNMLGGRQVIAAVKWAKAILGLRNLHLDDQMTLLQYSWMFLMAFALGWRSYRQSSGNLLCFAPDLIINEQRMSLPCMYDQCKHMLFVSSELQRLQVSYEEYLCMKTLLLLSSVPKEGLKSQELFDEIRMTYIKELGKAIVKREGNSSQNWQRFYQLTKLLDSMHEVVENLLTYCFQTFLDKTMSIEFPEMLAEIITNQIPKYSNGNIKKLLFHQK
As to the kind of experiment: Glucocorticoid receptor of the thymus of a rat, relative bond affinity. Type of experiment: binding. The settings on record: for relative bond affinity (RBA), Glucocorticoid: RBA=100(CH)/(CX), reference dexamethasone. As for the experimental part: Sprague-Dawley EPOS male rats weighting 160 to 200 g were suprarenalectomized and, 4 to 8 days after this removal, the animals were killed. The thymuses were removed and homogenized at 0° C. in a buffer Tris 10 mM, saccharose 0.25M, dithiothreitol 2 mM, HCl, pH 7.4, with Potter polytetrafluoroethylene-dish (1 g of tissue per 10 ml of TS). The homogenate was then ultra-centrifuged (105,000 g×90 minutes) at 0° C. Aliquots of the supernatant thus obtained were incubated at 0° C. for a time t, with a constant concentration (T) of tritiated dexamethasone in the presence of increasing concentrations (0-2500×10^-9 M) either of cold dexamethasone, or of cold product under test. The concentration of bonded tritiated […] (B) was then measured in each incubate by the technique of adsorption on dextran carbon.
(§1) The calculation of the relative bond affinity (RBA) was the same for all the receptors. The following 2 curves were drawn: the percentage of bonded tritiated hormone B/T as a function of the logarithm of the concentration of the cold reference hormone and B/T as a function of the logarithm of the concentration of the cold product under test. The straight line of the equation I50 =(B max/T+B min/T)/2 was determined. B/T max = percentage of bonded tritiated hormone for an incubation of this hormone tritiated at a concentration (T). B/T min = percentage of bonded tritiated hormone for an incubation of this tritiated hormone at a concentration (T) in the presence of a large excess of cold hormone (2500×10^-9 M). The intersections of the straight line I50 and the curves enables the concentrations of cold reference hormone (CH) and of cold product under test (CX) which inhibit by 50% the bond of the tritiated hormone on the receptor to be evaluated. The relative bond affinity (RBA) of the product tested was determined by the equation: […]

For experiment [2], the target named is T2, Progestogene receptor of the uterus of a rabbit (Oryctolagus cuniculus, UniProt P06186).
T2 construct: The uteri were removed, weighted and homogenized at 0° C; from tissue; host or cells: uterus of estradiol-treated impuberal female rabbits, 105,000 g supernatant (cytosol)
T2 sequence (P06186 1-930): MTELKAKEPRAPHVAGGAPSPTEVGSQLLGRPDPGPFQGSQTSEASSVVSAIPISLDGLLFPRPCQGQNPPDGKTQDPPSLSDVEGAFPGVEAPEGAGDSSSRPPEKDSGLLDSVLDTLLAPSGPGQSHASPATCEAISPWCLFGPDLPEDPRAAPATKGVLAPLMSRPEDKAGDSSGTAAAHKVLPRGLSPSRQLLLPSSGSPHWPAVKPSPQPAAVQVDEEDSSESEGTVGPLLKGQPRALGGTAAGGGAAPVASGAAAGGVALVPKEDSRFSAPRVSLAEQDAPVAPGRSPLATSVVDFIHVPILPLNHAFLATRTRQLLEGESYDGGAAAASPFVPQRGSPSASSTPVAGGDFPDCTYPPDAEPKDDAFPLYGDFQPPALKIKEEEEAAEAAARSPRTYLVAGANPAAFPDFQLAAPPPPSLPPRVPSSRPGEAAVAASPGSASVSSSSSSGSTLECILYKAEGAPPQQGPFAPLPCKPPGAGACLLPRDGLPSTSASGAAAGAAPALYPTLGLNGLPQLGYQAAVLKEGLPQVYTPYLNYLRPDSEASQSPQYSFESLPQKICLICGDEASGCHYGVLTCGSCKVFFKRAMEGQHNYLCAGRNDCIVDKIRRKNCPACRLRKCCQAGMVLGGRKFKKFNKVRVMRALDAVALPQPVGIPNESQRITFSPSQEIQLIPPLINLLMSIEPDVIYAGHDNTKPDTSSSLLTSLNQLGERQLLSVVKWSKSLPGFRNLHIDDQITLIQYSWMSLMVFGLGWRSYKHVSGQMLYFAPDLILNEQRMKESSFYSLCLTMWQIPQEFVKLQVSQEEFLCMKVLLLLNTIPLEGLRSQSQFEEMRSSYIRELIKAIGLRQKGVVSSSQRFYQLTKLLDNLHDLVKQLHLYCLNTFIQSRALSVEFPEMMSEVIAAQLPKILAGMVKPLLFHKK
Put plainly: Progestogene receptor of the uterus of a rabbit, relative bond affinity. The format is binding. The settings on record: for relative bond affinity (RBA), Progestogene: RBA=100(CH)/(CX). How it is done:
Impuberal female rabbits of about 1 kg received a cutaneous application of […] of estradiol and, 5 days after this treatment, the animals were killed. The uteri were removed, weighted and homogenized at 0° C. in a Potter teflon-dish in a buffered solution TS (Tris 10 mM, saccharose 0.25M, HCl pH 7.4) (1 g of tissue per 50 ml of TS). The homogenate was then ultra-centrifuged (105,000 g×90 minutes) at 0° C. and aliquots of the supernatant thus obtained were incubated at 0° C. for a time t, with a constant concentration (T) of tritiated product R (17,21-dimethyl-19-nor-Δ^4,9 -pregnadien-3,20-dione) in the presence of increasing concentrations (0-2500×10^-9 M) either of cold R, or of cold progesterone or of the cold product under test. The concentration of bonded tritiated R (B) […] by the technique of adsorption on dextran carbon.
as §1

Experiment [3] relates to Thymocytes of suprarenalectomized rats. As to the kind of experiment: Antiglucocorticoid activity: tritiated uridin incorporation in thymocytes with dexamethasone. The settings on record: Rattus norvegicus, Thymocyte, 5.10^-8 M dexamethasone, 37° C., read-out: % inhibition of the effect of dexamethasone; for inhibition at 1 µM: product at 10^-6 M; for inhibition at 0.1 µM: product at 10^-7 M; for inhibition at 0.01 µM: product at 10^-8 M. Type of experiment: cell-based. As for the experimental part:
The technique used was derived from the method described by Dausse et al in Molecular Pharmacology, Vol. 13, p.
Thymocytes of suprarenalectomized rats were incubated at 37° C. for 3 hours in a nutritive medium containing 5.10^-8 M of dexamethasone in the presence or absence of a product test at various concentrations. Tritiated uridin was added and incubation was continued for one hour. The incubates were cooled, treated with a 5% solution of trichloroacetic acid, filtered on Whatman GF/A paper and washed three time with a 5% solution of trichloroacetic acid. The radioactivity retained by the filter was determined. Glucocorticoids and, in particular dexamethasone, cause a decrease in the incorporation of tritiated uridin.

In a further experiment the test system is female rat. Put plainly: Abortive activity in a female rat. The settings on record: 3 mg/kg on day D9 of gestation, suspension in carboxymethyl cellulose containing 0.5% Tween; examined 72 hours after treatment. The format is in vivo. How it is done: Day D1 of gestation was determined by the presence of spermatozoids in the vaginal smear and, on day D9 of the gestation, the product was administered in suspension in carboxymethyl cellulose containing 0.5% Tween. The animals were killed 72 hours after the treatment and the uterus was examined to determine the state of gestation.

From patent US4921846A, “Novel 17-hetero substituted steroids” (Roussel Uclaf, priority 1987, dated 1990) come the findings set out here.

Turning to `CN(C)c1ccc([C@H]2C[C@@]3(C)[C@@H](CC[C@@]34CCO4)[C@@H]3CCC4=CC(=O)CCC4=C32)cc1` [Example 1, (17R) 11β-[4-(dimethylamino)-phenyl]-spiro-(Δ^4,9-estradien-17,2'-oxetan)-3-one], the results for the “relative bond affinity (RBA), Glucocorticoid” value in experiment [1] (Incubation Time at 0° C.: 2 H) and in experiment [1] (Incubation Time at 0° C.: 4 H) were 126 and 43, respectively. Besides, in experiment [1] (conclusion), the “affinity for glucocorticoid receptors (in words)” value is given as “marked affinity”. For the same molecule, the entries for the “relative bond affinity (RBA), Progestogene” value in experiment [2] (Incubation Time at 0° C.: 2 H) and in experiment [2] (Incubation Time at 0° C.: 4 H) were 93 and 415, respectively. Also, the “affinity for progestogen receptors (in words)” value in experiment [2] (conclusion) is on record as “marked affinity”. The inhibition at 1 µM in experiment [3] was 122%. Further, the inhibition at 0.1 µM in experiment [3] was 55%. In experiment [3], the inhibition at 0.01 µM came out at 16%. For the same molecule, in the experiment on female rat, the “abortion (state of gestation)” value was “complete abortion in all the animals of the group”.
With `CSc1ccc([C@H]2C[C@@]3(C)[C@@H](CC[C@@]34CCO4)[C@@H]3CCC4=CC(=O)CCC4=C32)cc1` [Example 2, (17R) 11β-[4-(methylthio)-phenyl]-spiro-(Δ^4,9-estradient-17,2'-oxetan)-3-one], the “relative bond affinity (RBA), Glucocorticoid” value in experiment [1] (Incubation Time at 0° C.: 2 H) is 56. Further, the “relative bond affinity (RBA), Glucocorticoid” value in experiment [1] (Incubation Time at 0° C.: 4 H) turned out to be 22. Moreover, the “relative bond affinity (RBA), Progestogene” value in experiment [2] (Incubation Time at 0° C.: 2 H) worked out at 23. In experiment [2] (Incubation Time at 0° C.: 4 H), the “relative bond affinity (RBA), Progestogene” value is 67. In experiment [3], the inhibition at 1 µM was determined as 76%, the inhibition at 0.1 µM stood at 27% and the inhibition at 0.01 µM was 10%.
Consider `CN(C)c1ccc([C@H]2C[C@@]3(C)[C@@H](CC[C@@]34CCCCO4)[C@@H]3CCC4=CC(=O)CCC4=C32)cc1` [Example 3, (17S) 11β-[4-(dimethylamino)-phenyl]-3',4',5',6'-tetrahydro spiro (Δ^4,8-estradien-17,2'-(2H)pyran)-3-one], for which the “relative bond affinity (RBA), Glucocorticoid” value in experiment [1] (Incubation Time at 0° C.: 2 H) came to 23. Moreover, the “relative bond affinity (RBA), Glucocorticoid” value in experiment [1] (Incubation Time at 0° C.: 4 H) is reported as 24. The “relative bond affinity (RBA), Progestogene” value in experiment [2] (Incubation Time at 0° C.: 2 H) was 24. In addition, the “relative bond affinity (RBA), Progestogene” value in experiment [2] (Incubation Time at 0° C.: 4 H) is 157. For the same molecule, in experiment [3], the inhibition at 1 µM was 93%, the inhibition at 0.1 µM was 22% and the inhibition at 0.01 µM was determined as 7%.

A word on the inhibition: it is the drop in the measured response relative to a control, in per cent.
